# In patent US10493048B2 (Neurocentria, Inc., priority 2015, dated 2019):
# Assays:
# [1] = test system: hippocampal neurons; assay: Functional terminal density by FM1-43 imaging
# Method: (§3) Neurons were plated onto Matrigel® (BD)-coated 8×8 mm coverslips or 6-well cell plates (Corning).
# Background FM, determined by imaging after unloading of FM dye following 480 APs at 2 Hz, was subtracted from the physiological action potential image. Terminals containing detectable amount of FM after subtraction were considered to be functional.
# FM 1-43+ puncta number per μm^2 of dendrite was used to estimate functional presynaptic terminal density.
# [2] = test system: cultured rat hippocampal neurons; assay: Intracellular free Mg2+ analysis (Magnesium Green) in hippocampal neuron cultures
# Method: as §3
# [Mg^2+]i was determined by using Magnesium Green™ (MgGreen, Invitrogen).
# Where F(a.u.) is the mean fluorescent density (arbitrary units) in the branch of interest which was quantified by using Image-Pro Plus software (IPP, Media Cybernetics, Carlsbad, Calif.), and Ddiameter is the mean width of the same selected branch in DIC image.
# [3] = test system: hippocampal neurons; conditions: threonate 0-150 μM, 2 days
# Source text: (§1) For chemical structure see supplemental FIG. 1.
# (§2) Proteins were transferred to PVDF membranes (Millipore), probed with primary antibodies against Synaptophysin (Millipore), RIM1 and Rab3a (Synaptic System), PSD-95, NR2B, β-tubulin and/or β-actin (all from Cell Signaling Technology) and then followed by an appropriate HRP-coupled secondary antibody (Cell Signaling Technology). The signals were detected by ECL detection reagent (GE Healthcare) and captured on autoradiography film (Kodak). For quantification of protein signals, the integrated optical density (IOD) was measured with IPP, and β-tubulin or β-actin on the same lane served as loading controls.
# [4] = test system: hNSC-derived neurons
# Method: Human fetal cortices-derived neural stem cells (hNSC; Angecon, China) were cultured in hNSC medium (Angecon) according to guidelines provided by Angecon. hNSCs were maintained in this medium for 10-14 days, passaged using Accutase (Invitrogen), washed and replated at a dilution of 1:3 to 1:5.
# A previously described differentiation protocol was used to differentiate hNSCs to neurons. Briefly, hNSC cultures were dissociated into single cells with Accutase, and then plated on polyornithine/laminin (Sigma)-coated 6-well plates at 50,000 cells per cm^2 in neural maintenance medium with EGF (Invitrogen) and FGF2 (Pepro Tech) at a concentration of 10 ng ml^−1. Neural maintenance medium consists of a 1:1 mixture of DMEM/F12 and Neurobasal medium (Invitrogen), 1×N2 (Invitrogen), 1×B27 (Invitrogen), 1 mM L-glutamine, 0.1 mM non-essential amino acids, 5 μg ml^−1 insulin, 0.1 mM 2-mercaptoethanol, 25 U ml^−1 penicillin and […] streptomycin. […] Neurons were maintained 10-14 days in this medium; medium was replaced every day. When neuroepithelial cells appeared, Dispase (Roche) was used to collect cells. They were replated in neural maintenance medium with EGF and FGF2 at 20 ng ml^−1 for 2-4 days, then changed to neural maintenance medium and cultured for up to 80 days, replacing medium every other day.
# as §2
# [5] = test system: hippocampal neurons; conditions: threonate 0-150 μM, 2 days; remark: listed apart in the source
# Method: as §1
# Neuronal cultures were washed three times in 0.01 M PBS followed by fixation for 20 min in 4% paraformaldehyde at 4° C. The neuronal culture coverslips were then washed in PBS before incubation in blocking solution containing 0.1% Triton X-100 and 1% bovine serum albumin for 30 min at room temperature. […] Finally, neurons were mounted onto slides with anti-fade fluorescent mounting medium (Vector Laboratories) and stored at 4° C. for 2 days.
# Cultures were imaged with a confocal laser inverted microscope (Olympus IX-70) equipped with a 60× (NA 1.2) objective. […] The density of synaptophysin (Syn) and PSD-95 was estimated from images by analyzing with IPP. The puncta of Syn and PSD-95, localized at the dendrites labeled by the neuronal marker MAP2, were counted manually. To determine the density of Syn and PSD-95 colocalization, we aligned two sets of images and resulting yellow clusters (Syn: red; PSD-95: green) localized at dendritic were quantified. Fluorescence spots (red and green) having a diameter between 0.1 and 0.6 μm were classified.
# [6] = test system: hippocampal neurons; conditions: threonate (150 M) for 2 days, 0.6 Mg, p<0.01
# Source text: Mitochondrial transmembrane potential (Δψm) of hippocampal neurons was observed microscopically (Olympus IX-70) by using 5,5′,6,6′-tetrachloro-1,1′,3,3′-tetraethylbenzimidazolylcarbocyanine iodide (JC-1, Invitrogen). The monomeric form of JC-1 has an emission maximum at 529 nm. At higher concentrations or potentials the dye forms red fluorescent J-aggregates with an emission maximum of 590 nm. The ratio of J-aggregate/J-monomer is used as an estimate of Δψm.
# [7] = human neurons treated at day 90, dose-dependent, up to 400 μM
# [8] = threonate 150 μM, time course 0-36 hr
compound,measurement,setting,value
"C=C1[C@@H](C)[C@H]2[C@H](Cc3ccccc3)NC(=O)[C@]23OC(=O)/C=C/[C@H](O)CCC[C@@H](C)C/C=C/[C@H]3[C@@H]1O [CB, cytochalasin B, reference compound]","density of functional terminals relative to control, inhibitor alone","[1]; 4 hr, without threonate",did not affect
same,"intracellular [Mg2+] relative to control, inhibitor alone","[2]; 4 hr, without threonate",did not alter
"NCC(=O)O [glycinate, reference compound]","effect on functional terminal density, comparison of anions",[1],no significant effects
same,"ability to increase intracellular [Mg2+], comparison of anions",[2],threonate was the only one able to increase
"O=C(CCc1ccc(O)cc1)c1c(O)cc(O)cc1O [phloretin, reference compound]","decrease of functional terminal density, inhibitor alone","[1]; 4 hr, without threonate, p<0.05",10.5%
same,"decrease of intracellular [Mg2+] relative to placebo, inhibitor alone","[2]; 4 hr, without threonate, p<0.01",10.4%
"O=C(O)[C@H](O)[C@@H](O)CO [threonate, (2R,3S)-2,3,4-trihydroxybutanoate]",NR2B-containing NMDAR expression (Western blot),[3],significantly upregulated
same,PSD-95 expression (Western blot),[3],significantly increased
same,RIM1 expression (Western blot),[3],significantly increased
same,Rab3a expression (Western blot),[3],significantly increased
same,Syn expression (Western blot),[3],significantly increased
same,threonate dose response curve in human neurons compared to the rat dose response curve,[4]; effects continued to increase even at 400 μM,shifted toward a higher concentration
same,PSD-95 expression (Western blot),[4]; [7],significantly increased
same,Syn expression (Western blot),[4]; [7],significantly increased
same,effect on functional terminal density in the presence of CB,"[1]; threonate 150 μM, 4 hr, with cytochalasin B",unable to elevate
same,increase of functional terminal density relative to control in the presence of phloretin,"[1]; threonate 150 μM, 4 hr, with phloretin, p<0.001",20.4%
same,"number of functional terminals, dose dependence","[1]; threonate 50-150 μM, 2 days, extracellular [Mg2+] 0.6, 0.8 or 1.2 mM",increased in threonate-treated neurons in a dose-dependent manner
same,effect on functional terminal density at reduced extracellular [Mg2+],"[1]; threonate 4 hr, 0.1 mM extracellular [Mg2+]",prevented threonate from increasing functional terminal density
same,increase of functional terminal density,"[1]; threonate (150 M) for 4 hr, 0.6 mM extracellular [Mg2+] (Example 5)",23%
same,colocalization of Syn/PSD-95,[5],significantly upregulated
same,density of PSD-95 puncta,[5],significantly upregulated
same,density of Syn puncta,[5],significantly upregulated
same,increase of mitochondrial membrane potential ΔΨm (JC-1 aggregate/monomer ratio),[6],49.6%
same,threonate-mediated increase of intracellular [Mg2+] in the presence of CB,"[2]; 4 hr, with cytochalasin B (GLUTs inhibitor)",prevented
same,increase of intracellular [Mg2+] in the presence of phloretin,"[2]; 4 hr, with phloretin (SVCT2 inhibitor), p<0.0001",23.5%
same,threonate concentration that induced the largest change in intracellular [Mg2+],"[2]; 2 day treatment, 0-200 μM tested",150 µM
same,effect on intracellular [Mg2+],"[2]; 2 day treatment, threonate 0-200 μM, extracellular [Mg2+] 0.6, 0.8 or 1.2 mM",increase of intracellular [Mg^2+] in a dosage-dependent manner
same,effect on intracellular [Mg2+] at reduced extracellular [Mg2+],"[2]; threonate 150 μM, 4 hr, 0.1 mM extracellular [Mg2+]",no longer induced elevation
same,increase of intracellular [Mg2+],"[2]; threonate 150 μM, 4 hr, 0.6 mM extracellular [Mg2+] (Example 3)",~27%
same,persistence of the intracellular [Mg2+] increase,[2]; [8],persisted for the entire course of the experiment
same,time at which effect on intracellular [Mg2+] was maximal,[2]; [8],2 h
same,increase of intracellular [Mg2+],"[2]; threonate (150 mM), 4 hr, 0.6 mM [Mg2+]o (Example 7), p<0.0001",29.6%
